Data set [1] deals with Gram-negative bacteria. Briefly: MIC of ester and amide side chain compounds (Table 14). As to conditions: strain not given. Type of data set: cell-based. As for the experimental part: (§1) Aliquots of 1 mL of the suspension were added to test tubes containing 1 mL TSB and incrementally varied concentrations of cholic acid derivatives and/or erythromycin or novobiocin. In the sensitization experiments, erythromycin or novobiocin were added 15 minutes later than the cholic acid derivatives. The samples were subjected to stationary incubation at 37° C. for 24 hours. Sample turbidity was determined by measuring absorption at 760 nm (HP 8453 UV-Visible Chemstation, Hewlett Packard). Additionally, an alliquot from each of the samples showing no measurable turbidity was subcultured on TSA plates (alliquots were diluted to provide fewer than 300 CFU). Colonies that grew on the subculture after overnight incubation were counted and the number of CFU/mL in the samples were calculated. The calculated values were compared to the number of CFU/mL in the original inoculum.
(§2) Ester and amide side chains: Additional compounds, for example, compounds with amide and ester side chains, were tested.

In data set [2] the test system is Gram-negative bacteria. Briefly: Sensitization to novobiocin, ester and amide side chain compounds (Table 14). Type of data set: cell-based. The settings on record: strain not given. On the procedure:
as §1
(§3) Ability to permeabilize outer membrane: Compounds 11, 106, and 108-114 (FIG. 1) were tested for antibiotic activity. They were also tested for the ability to permeabilize the outer membrane of Gram-negative bacteria, causing sensitization to hydrophobic antibiotics that cannot cross the outer membrane. The permeabilization of the outer membrane was measured using erythromycin and novobiocin.
as §2

For data set [3], the system named is E. coli (ATCC 10798). Nature of the data set: MIC and MBC measurement with E. coli (ATCC 10798). In kind it is cell-based, Escherichia coli. As to conditions: Table 1, E. coli (ATCC 10798). The procedure, abridged:
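Strains kept on Mueller-Hinton agar (Candida on Sabouraud dextrose agar); suspension mixed 1:1 with TSB containing serial compound concentrations; 37° C., 24 h, no shaking; turbidity A760; clear tubes plated on TSA, colonies counted, CFU/mL vs inoculum.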

Data set [4] deals with Gram-negative bacteria. Nature of the data set: Sensitization to erythromycin, ester and amide side chain compounds (Table 14). Type of data set: cell-based. As to conditions: Table 14; strain not given. As for the experimental part:
as §1, §3, §2

Data set [5] deals with E. coli (ATCC 10798). Nature of the data set: Sensitization to erythromycin (concentration lowering the MIC of erythromycin), E. coli (ATCC 10798). In kind it is cell-based, Escherichia coli. As to conditions: Table 2, E. coli (ATCC 10798).
Data set [6] has as its system E. coli (ATCC 25922). Briefly: Sensitization to erythromycin, E. coli (ATCC 25922). Type of data set: cell-based, Escherichia coli. The settings on record: Table 11; Escherichia coli ATCC 25922; erythromycin (by order) at 0.5, 1.0 or 3.0 μg/mL. As for the experimental part: FICs can be performed by checkerboard titrations of compounds in one dimension of a microtiter plate, and of antibiotics in the other dimension, for example. The FIC is calculated by looking at the impact of one antibiotic on the MIC of the other and vice versa. […] Preferably, an FIC of less than 0.5 is obtained for synergism. As used herein, FIC can be determined as follows:
as §1
Concentrations of 0.5, 1.0 or 3.0 μg/mL of these antibiotics were used, and the concentrations of the cholic acid derivatives required to inhibit bacterial growth of Gram-negative strains were determined.
(§4) Minimum inhibition concentrations (MIC) and minimum hemolytic concentrations (MHC) were measured as described in Li et al., Antimicrob. Agents. Chemother., 1999, 43, 1347.

Data set [7] deals with Salmonella typhimurium ATCC 14028. Briefly: Growth inhibition and FIC with novobiocin, Salmonella typhimurium ATCC 14028. Type of data set: cell-based. The settings on record: Table 12, novobiocin (by order) at 0.5, 1.0 or 3.0 μg/mL. As for the experimental part: (§5) Alternatively, “fractional inhibitory concentration (FIC)” is also useful for determination of synergy between the compounds of the invention, or the compounds in combination with known antibiotics. FICs can be performed by checkerboard titrations of compounds in one dimension of a microtiter plate, and of antibiotics in the other dimension, for example. The FIC is calculated by looking at the impact of one antibiotic on the MIC of the other and vice versa. […] Preferably, an FIC of less than 0.5 is obtained for synergism. As used herein, FIC can be determined as follows:
as §1
(§6) To measure permeabilization, the FIC values for compounds 1, 2, 5, 106, 10, 112, 133, and 134 with erythromycin, novobiocin, and rifampicin were determined. Concentrations of 0.5, 1.0 or 3.0 μg/mL of these antibiotics were used, and the concentrations of the cholic acid derivatives required to inhibit bacterial growth of Gram-negative strains were determined.

Data set [8] concerns Staphylococcus aureus ATCC 25923. Briefly: MIC and MBC measurement with Staphylococcus aureus ATCC 25923. Type of data set: cell-based. The settings on record: ATCC25923; Table 10; Staphylococcus aureus ATCC 25923; read-out: MIC.
Excerpt: (§7) General: Microorganisms. Reference strains were purchased from the American Type Culture Collection (Rockville, Md.) or Bactrol disks from Difeo Laboratories (Detroit, Mich.). The following specific ATCC strains were used: 10798 Escherichia coli, 25922 Escherichia coli, 13883 Klebsiella pneumoniae, 27853 Pseudomonas aeruginosa, 14028 Salmonella typhimurium, 29212 Enterococcus faecalis, 25923 Staphylococcus aureus, 19615 Streptococcus pyogenes, and 90028 Candida albicans. Bacterial strains were maintained on Mueller-Hinton agar plates, and Candida albicans was maintained on Sabouraud Dextrose agar plates.
(§8) Tryptic soy broth (TSB) was made by dissolving 27.5 grams of tryptic soy broth without dextrose (DIFCO Laboratories) in 1 liter of deionized water and sterilizing at 121° C. for 15 minutes. Solid agar (TSA) plates were made by dissolving 6.4 grams of tryptic soy broth and 12 grams of agar (purified grade, Fischer Scientific) in 800 mL of deionized water and sterilizing at 121° C. for 20 minutes. Aliquots (20 mL) of the homogeneous solution were then poured in sterile plastic petri dishes (100×15 mm, Fisher Scientific). Solutions of compounds were made by dissolving the HCl salt of the respective compound into an appropriate amount of deionized and sterilized water followed by microfiltration.
as §1, with “inoculum. […]” for “inoculum.”

Data set [9] relates to E. coli (ATCC 25922). Nature of the data set: MIC and MBC measurement with E. coli (ATCC 25922). In kind it is cell-based, Escherichia coli. As to conditions: ATCC25922; Table 10; Escherichia coli ATCC 25922; read-out: MBC. Put shortly:
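Bacteria incubated statically 24 h at 37 °C in TSB with graded compound concentrations (erythromycin or novobiocin added 15 min later in sensitization runs). MIC from turbidity at 760 nm; MBC by subculturing clear samples on TSA and comparing CFU/mL to inoculum.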

For data set [10], the system named is Pseudomonas aeruginosa (ATCC 27853). Nature of the data set: Sensitization to novobiocin, Pseudomonas aeruginosa (ATCC 27853). Type of data set: cell-based. As to conditions: Table 12; Pseudomonas aeruginosa ATCC 27853; novobiocin (by order) at 0.5, 1.0 or 3.0 μg/mL. On the procedure: as §5
as §1, with “inoculum. […]” for “inoculum.”
as §6

The procedure of data set [11]:
as §4

Data set [12] concerns Klebsiella pneumonia ATCC 13883. Nature of the data set: MIC and MBC measurement with Klebsiella pneumoniae ATCC 13883. As to conditions: Klebsiella pneumoniae, ATCC13883, Table 10, read-out: MBC. Type of data set: cell-based.
Excerpt: as §7, §8, §1

For data set [13] the test system is unchanged. Briefly: Growth inhibition and FIC with novobiocin, Klebsiella pneumoniae ATCC 13883. As to conditions: Table 12, novobiocin (by order) at 0.5, 1.0 or 3.0 μg/mL. In kind it is cell-based. As for the experimental part: as §5, §1, §6
Data set [14] relates to Salmonella typhimurium ATCC 14028. Briefly: MIC and MBC measurement with Salmonella typhimurium ATCC 14028. As to conditions: Salmonella enterica, Table 10, read-out: MBC. In kind it is cell-based.
Excerpt: as §7, §8, §1

Data set [15] relates to Pseudomonas aeruginosa (ATCC 27853). Briefly: Sensitization to erythromycin, Pseudomonas aeruginosa (ATCC 27853). Type of data set: cell-based. The procedure, abridged: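 Tube checkerboard in TSB: cholic acid derivatives added, then erythromycin or novobiocin 15 min later, antibiotics at 0.5, 1.0 or 3.0 μg/mL; stationary 37 °C, 24 h. Turbidity read at 760 nm; clear samples subcultured on TSA for CFU counts versus inoculum; FIC derived for synergy.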

Data set [16] concerns Pseudomonas aeruginosa ATCC 27853. Briefly: Growth inhibition and FIC with rifampicin, Pseudomonas aeruginosa ATCC 27853. Type of data set: cell-based. The settings on record: Table 13; Pseudomonas aeruginosa ATCC 27853^b; rifampicin (by order) at 0.5, 1.0 or 3.0 μg/mL. As for the experimental part: as §5, §1, §6
Data set [17] deals with Klebsiella pneumonia ATCC 13883. Briefly: Growth inhibition and FIC with rifampicin, Klebsiella pneumoniae ATCC 13883. Type of data set: cell-based. As for the experimental part: as §5, §1, §6
The subject of data set [18] is Salmonella typhimurium ATCC 14028. Briefly: Growth inhibition and FIC with rifampicin, Salmonella typhimurium ATCC 14028. In kind it is cell-based. The settings on record: Table 13; Salmonella typhimurium ATCC 14028^b; rifampicin (by order) at 0.5, 1.0 or 3.0 μg/mL. On the procedure: as §5, §1, §6
Data set [19] has as its system Escherichia coli ATCC 25922. Briefly: Growth inhibition and FIC with rifampicin, Escherichia coli ATCC 25922. Type of data set: cell-based. The settings on record: Table 13, rifampicin (by order) at 0.5, 1.0 or 3.0 μg/mL. On the procedure: as §5, §1, §6

SMILES strings stand for the structures. In brackets after ≈: the same amount, converted by molar mass. A value given as a limit tells only on which side of the number the result lay.

As usually defined, the MIC is the least concentration at which growth counts as inhibited. The MBC is the smallest concentration meeting the test's criterion for killing.

As to `C[C@H](CCCN(C)Cc1ccccc1)[C@H]1CC[C@H]2[C@@H]3[C@H](OC(=O)CN)C[C@@H]4C[C@H](OC(=O)CN)CC[C@]4(C)[C@H]3C[C@H](OC(=O)CN)[C@]12C.Cl.Cl.Cl.Cl` [Compound 6], the MIC was determined as 85 µg/mL with Gram-negative bacteria [1] and 65 µg/mL in the data set on E. coli (ATCC 10798) [3]. In addition, the “b: concentration of cholic acid derivatives required to lower MIC of novobiocin to 1 μg/ML” value with Gram-negative bacteria [2] is 40 µg/mL. Besides, the “a: concentration of cholic acid derivatives required to lower MIC of erythromycin to 1 μg/ML” value with Gram-negative bacteria [4] worked out at 15 µg/mL. Also, the “MIC: concentration required to lower the MIC of erythromycin from 70 μg/mL to 1 μg/mL” value in the data set with E. coli (ATCC 10798) [5] is 22 µg/mL.
Regarding `C[C@H](CCCN(C)Cc1ccccc1)[C@H]1CC[C@H]2[C@@H]3[C@H](OC(=O)CCN)C[C@@H]4C[C@H](OC(=O)CCN)CC[C@]4(C)[C@H]3C[C@H](OC(=O)CCN)[C@]12C.Cl.Cl.Cl.Cl` [Compound 7], the MIC with Gram-negative bacteria [1] was found to be 70 µg/mL; with E. coli (ATCC 10798) [3] it was 28 µg/mL. Further, the “b: concentration of cholic acid derivatives required to lower MIC of novobiocin to 1 μg/ML” value in the data set with Gram-negative bacteria [2] is 13 µg/mL. Also, the “a: concentration of cholic acid derivatives required to lower MIC of erythromycin to 1 μg/ML” value with Gram-negative bacteria [4] is 3 µg/mL. For the same compound, the “MIC: concentration required to lower the MIC of erythromycin from 70 μg/mL to 1 μg/mL” value with E. coli (ATCC 10798) [5] came to 2.5 µg/mL.
`C[C@H](CCCO)[C@H]1CC[C@H]2[C@@H]3[C@H](OCCCN)C[C@@H]4C[C@H](OCCCN)CC[C@]4(C)[C@H]3C[C@H](OCCCN)[C@]12C` [Compound 10]: the “concentration required to inhibit bacterial growth with antibiotic” value came out at 1.5 µg/mL with E. coli (ATCC 25922) [6]; 1.8 µg/mL in data set [7]; 5.3 µg/mL in [10]; 0.73 µg/mL in data set [13]; 2.1 µg/mL in data set [15] (Table 11, Pseudomonas aeruginosa ATCC 27853, erythromycin (by order) at 0.5, 1.0 or 3.0 μg/mL); 0.84 µg/mL in data set [16]. Also, the “concentration required to inhibit bacterial growth with antibiotic” value in data set [17] (Table 13, rifampicin (by order) at 0.5, 1.0 or 3.0 μg/mL) came out at 0.16 µg/mL; in [18] it was 0.55 µg/mL; in data set [19] it was 0.70 µg/mL. Also, the MIC in [8] turned out to be 2 µg/mL (≈ 3.53 µM). Further, the MBC in the data set on E. coli (ATCC 25922) [9] was 40 µg/mL (≈ 70.7 µM); with E. coli (ATCC 10798) [3] (Escherichia coli, ATCC10798, read-out: MBC) it was 60 µg/mL (≈ 106 µM); in data set [12], 50 µg/mL (≈ 88.4 µM); in [14] it was more than 17 µg/mL. Moreover, the MHC in [11] worked out at 100 µg/mL. In data set [15] (Table 7, P. aureginosa (ATCC 27853)), the “MIC: concentration required to lower the MIC of erythromycin from 240 μg/mL to 5 μg/mL” value stood at 7 µg/mL. Also, the “MIC: concentration required to lower the MIC of erythromycin from 70 μg/mL to 1 μg/mL” value in the data set on E. coli (ATCC 10798) [5] was 2 µg/mL. The “MBC (with erythromycin)” value with E. coli (ATCC 10798) [5] (erythromycin sensitization) is 50 µg/mL. In data set [17] (Table 13, rifampicin (by order)), the FIC came out at 0.030.

The record behind these values is patent US7598234B2, “Steroid derived antibiotics” (Brigham Young University, priority 1998, dated 2009).
